Test results: patent US4221811A, “Antifungal and/or antibacterial organotin compounds, and use” (priority 1977, dated 1980)

Key:
Assay type in all cases: cell-based
Cladosporium cucumerinum = conditions: after three days, glucose-agar, pH~6.9-7.0
Source text: (§1) Antifungal activity of organotin compounds. Minimal concentra-
(§2) tion (mg/l) causing complete inhibition of visible growth (MIC;
(§3) after three days). -Test medium: glucose-agar; pH~6.9-7.0.

Penicillium italicum = conditions: after three days, glucose-agar, pH~6.9-7.0
Source text: as §1, §2, §3

Aspergillus niger = conditions: after three days, glucose-agar, pH~6.9-7.0
Source text: as §1, §2, §3

Botrytis allii = conditions: after three days, glucose-agar, pH~6.9-7.0
Source text: as §1, §2, §3

E. coli = E. coli (Gram-neg.); after three days; peptone-glucose agar; pH ~ 6.9-7.0
Source text: (§4) Antibacterial activity of organotin compounds. Minimal concentration
(§5) causing complete inhibition of visible growth (MIC; after three days).
(§6) Test medium: peptone-glucose agar; pH ~ 6.9-7.0.

P. fluorescens = P. fluorescens (Gram-neg.); after three days; peptone-glucose agar; pH ~ 6.9-7.0
Source text: as §4, §5, §6

S. lactis = S. lactis (Gram-pos.); after three days; peptone-glucose agar; pH ~ 6.9-7.0
Source text: as §4, §5, §6

B. subtilis = B. subtilis (Gram-pos.); after three days; peptone-glucose agar; pH ~ 6.9-7.0
Source text: as §4, §5, §6

SMILES | Minimal concentration causing complete inhibition of visible growth (MIC) (Cladosporium cucumerinum) | Minimal concentration causing complete inhibition of visible growth (MIC) (Penicillium italicum) | Minimal concentration causing complete inhibition of visible growth (MIC) (Aspergillus niger) | Minimal concentration causing complete inhibition of visible growth (MIC) (Botrytis allii) | Minimal concentration causing complete inhibition of visible growth (MIC) (E. coli) | Minimal concentration causing complete inhibition of visible growth (MIC) (P. fluorescens) | Minimal concentration causing complete inhibition of visible growth (MIC) (S. lactis) | Minimal concentration causing complete inhibition of visible growth (MIC) (B. subtilis)
CCC[CH2][Sn]([CH2]CCC)([CH2]CCC)[CH2]CCOC(C)=O [Bu3 Sn(CH2)3 OCOCH3] | 20 µg/mL | 20 µg/mL | 50 µg/mL | 50 µg/mL | > 1000 µg/mL | 300 µg/mL | 100 µg/mL | 100 µg/mL
CCC[CH2][Sn]([CH2]CCC)([CH2]CCC)[CH2]CCO [Bu3 Sn(CH2)3 OH] | 100 µg/mL | 100 µg/mL | 100 µg/mL | 50 µg/mL | > 1000 µg/mL | > 1000 µg/mL | 300 µg/mL | 1000 µg/mL
C[N+](C)(C)CC[CH2][Sn]([c]1ccccc1)([c]1ccccc1)[c]1ccccc1.[I-] [Ph3 Sn(CH2)3 NMe3 I] | 500 µg/mL | 200 µg/mL | > 500 µg/mL | 20 µg/mL | 1000 µg/mL | 1000 µg/mL | 10 µg/mL | 10 µg/mL
CCC[CH2][Sn]([CH2]CCC)([CH2]CCC)[CH2]CCC [Bu4 Sn, reference compound] | > 500 µg/mL | > 500 µg/mL | > 500 µg/mL | > 500 µg/mL | > 500 µg/mL | > 500 µg/mL | > 500 µg/mL | > 500 µg/mL
CCC[CH2][Sn]([CH2]CCC)([CH2]CC[N+](C)(C)C)[CH2]CC[N+](C)(C)C.[I-].[I-] [Bu2 Sn[(CH2)3 NMe3 I]2, Bis(trimethylammoniopropyl)dibutyltin diiodide] | > 500 µg/mL | 200 µg/mL | > 500 µg/mL | 200 µg/mL | > 1000 µg/mL | > 1000 µg/mL | 300 µg/mL | 300 µg/mL
CCC[CH2][Sn]([CH2]CCC)([CH2]CCC)[CH2]CC[N+](C)(C)C.[I-] [Bu3 Sn(CH2)3 NMe3 I] | 20 µg/mL | 50 µg/mL | 50 µg/mL | ≤ 10 µg/mL | 30 µg/mL | 300 µg/mL | ≤ 1 µg/mL | ≤ 1 µg/mL
CCC[CH2][Sn]([CH2]CCC)([CH2]CCC)[O]C(C)=O [Bu3 SnOAc, reference compound] | 1 µg/mL | 0.5 µg/mL | 1 µg/mL | 0.5 µg/mL | > 500 µg/mL | 100 µg/mL | 5 µg/mL | 2 µg/mL
CCC[CH2][Sn]([CH3])([CH2]CCC)[CH2]CCNCCCN(C)C [MeBu2 Sn(CH2)3 NH(CH2)3 NMe2, N-[3-(methyldibutylstannyl)propyl-N', N'-dimethyltrimethylene]diamine] | 50 µg/mL | ≤ 10 µg/mL | 50 µg/mL | ≤ 10 µg/mL | 10 µg/mL | 10 µg/mL | 10 µg/mL | 10 µg/mL
O=C([CH2][Sn]([c]1ccccc1)([c]1ccccc1)[c]1ccccc1)[O][Sn]([c]1ccccc1)([c]1ccccc1)[c]1ccccc1 [Ph3 SnCH2 COOSnPh3] |  | ≤ 10 µg/mL | ≤ 10 µg/mL | ≤ 10 µg/mL |  |  |  | 
CCC[CH2][Sn]([CH2]CCC)([CH2]CCN(C)C)[CH2]CCN(C)C [Bu2 Sn[(CH2)3 NMe2]2] | 500 µg/mL | 100 µg/mL | > 500 µg/mL | 50 µg/mL | 100 µg/mL | 300 µg/mL | 100 µg/mL | 100 µg/mL
CCC[CH2][Sn]([CH2]CCC)([CH2]CCC)[CH2]CC(N)=O [Bu3 Sn(CH2)2 CONH2] | ≤ 10 µg/mL | ≤ 10 µg/mL | ≤ 20 µg/mL | ≤ 10 µg/mL | > 1000 µg/mL | 300 µg/mL | 10 µg/mL | 3 µg/mL
CCC[CH2][Sn]([CH2]C#N)([CH2]CCC)[CH2]CCC [Bu3 SnCH2 CN] |  | 5 µg/mL | 1 µg/mL | 20 µg/mL |  |  |  | 
CCC[CH2][Sn]([CH2]CCC)([CH2]CCC)[CH2]CCN [Bu3 Sn(CH2)3 NH2] | 5 µg/mL | 2 µg/mL | 20 µg/mL |  |  |  |  | 
CCC[CH2][Sn]([CH2]CCC)([CH2]CCC)[CH2]CCCN [Bu3 Sn(CH2)4 NH2] |  |  |  |  | 300 µg/mL | 300 µg/mL | 3 µg/mL | 3 µg/mL
CCCC[CH2][Sn]([CH2]CCCC)([CH2]CCCC)[CH2]CC[N+](C)(C)C.[I-] [Pent3 Sn(CH2)3 NMe3 I] | 20 µg/mL | 20 µg/mL | 20 µg/mL | ≤ 10 µg/mL |  |  |  | 
CC[N+](C)(CC)CC[CH2][Sn]([c]1ccccc1)([c]1ccccc1)[c]1ccccc1.[I-] [Ph3 Sn(CH2)3 NEt2 MeI] |  | 500 µg/mL | > 1000 µg/mL | 50 µg/mL |  |  |  | 
